Experimental data: ChEMBL document CHEMBL1132118, “Structure-based design, synthesis, and biological evaluation of irreversible human rhinovirus 3C protease inhibitors. 3. Structure-activity studies of ketomethylene-containing peptidomimetics” (J Med Chem, 1999)

What was measured:
Format in all cases: functional
[1] = biological target: T1, Human rhinovirus A protease (Human rhinovirus sp.) (UniProt Q4U254); test: The EC90 was calculated as the concentration of drug that increased the percentage of formazan production in drug treated, virus infected cells to 50% of that produced by drug free uninfected cells on human rhinovirus-10.
T1 sequence (whole entry): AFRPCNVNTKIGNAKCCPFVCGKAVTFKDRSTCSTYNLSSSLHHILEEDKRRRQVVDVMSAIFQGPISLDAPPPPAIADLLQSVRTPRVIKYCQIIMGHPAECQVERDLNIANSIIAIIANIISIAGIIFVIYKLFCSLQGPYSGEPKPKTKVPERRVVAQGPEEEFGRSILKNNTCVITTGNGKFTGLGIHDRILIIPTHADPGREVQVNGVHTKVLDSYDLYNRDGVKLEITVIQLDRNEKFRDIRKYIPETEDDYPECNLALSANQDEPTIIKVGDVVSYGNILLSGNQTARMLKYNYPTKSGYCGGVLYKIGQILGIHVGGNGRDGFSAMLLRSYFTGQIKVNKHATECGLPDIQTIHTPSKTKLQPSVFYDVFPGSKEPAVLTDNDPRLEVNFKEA

[2] = biological target: T1, Human rhinovirus A protease (Human rhinovirus sp.); test: The EC90 was calculated as the concentration of drug that increased the percentage of formazan production in drug treated, virus infected cells to 50% of that produced by drug free uninfected cells on human rhinovirus-14.
[3] = biological target: T1, Human rhinovirus A protease (Human rhinovirus sp.); test: The EC90 was calculated as the concentration of drug that increased the percentage of formazan production in drug treated, virus infected cells to 50% of that produced by drug free uninfected cells on human rhinovirus-1A.
[4] = biological target: T1, Human rhinovirus A protease (Human rhinovirus sp.); test: The EC90 was calculated as the concentration of drug that increased the percentage of formazan production in drug treated, virus infected cells to 50% of that produced by drug free uninfected cells on human rhinovirus-2.
[5] = The 50% cytotoxic concentration was calculated as the concentration of the drug that decreased the percentage of formazan produced in drug-treated,uninfected cells to 50% of that produced in drug free uninfected cells on serotype 14.

SMILES: CCOC(=O)/C=C/[C@H](CCC(N)=O)NC(=O)[C@@H](CC(=O)[C@@H](NC(=O)SC1CCCC1)C(C)C)Cc1ccc(F)cc1
- EC90 [1]: 0.25 µM
- EC90 [2]: 0.1 µM
- EC90 [3]: 0.2 µM
- EC90 [4]: 0.25 µM
- CC50 [5]: > 100 µM

SMILES: CCOC(=O)/C=C/[C@H](CCC(N)=O)NC(=O)[C@@H](CC(=O)[C@@H](NC(=O)c1cc(C)on1)C(C)C)Cc1ccc(F)cc1
- EC90 [1]: 0.79 µM
- EC90 [2]: 0.32 µM

SMILES: CCOC(=O)/C=C/[C@H](CCC(N)=O)NC(=O)[C@H](Cc1ccccc1)NC(=O)[C@H](CC(C)C)NC(=O)OCc1ccccc1
- CC50 [5]: > 320 µM

SMILES: CCOC(=O)/C=C/[C@H](CCC(N)=O)NC(=O)[C@@H](CC(=O)[C@@H](NC(=O)SCc1ccccc1)C(C)C)Cc1ccccc1
- CC50 [5]: > 100 µM

SMILES: CCOC(=O)/C=C/[C@H](CCC(N)=O)NC(=O)[C@@H](CC(=O)[C@H](CC(C)C)NC(=O)SC1CCCC1)Cc1ccc(F)cc1
- CC50 [5]: > 100 µM

SMILES: CCOC(=O)/C=C/[C@H](CCC(N)=O)NC(=O)[C@@H](CC(=O)[C@H](CC(C)C)NC(=O)SCc1ccccc1)Cc1ccccc1
- CC50 [5]: > 100 µM

SMILES: CCOC(=O)/C=C/[C@H](CCC(N)=O)NC(=O)[C@@H](CC(=O)[C@@H](NC(=O)SC1CCCC1)C(C)C)Cc1ccccc1
- CC50 [5]: > 100 µM

SMILES: CCOC(=O)/C=C/[C@H](CCC(N)=O)NC(=O)[C@@H](CC(=O)[C@H](CC(C)C)NC(=O)SC1CCCC1)Cc1ccc(C)cc1
- CC50 [5]: > 100 µM

SMILES: CCOC(=O)/C=C/[C@H](CCC(N)=O)NC(=O)[C@@H](CC(=O)[C@@H](NC(=O)SC1CCCC1)C(C)C)Cc1ccc(C)cc1
- CC50 [5]: > 100 µM

SMILES: CCOC(=O)/C=C/[C@H](CCC(N)=O)NC(=O)[C@H](Cc1ccc(F)cc1)NC(=O)[C@@H](NC(=O)SC1CCCC1)C(C)C
- EC90 [1]: 2.5 µM
- EC90 [2]: 1.8 µM
- EC90 [3]: 2.5 µM
- EC90 [4]: 5.4 µM

SMILES: CCOC(=O)/C=C/[C@H](CCC(N)=O)NC(=O)[C@@H](CC(=O)[C@H](Cc1ccccc1)NC(=O)SC1CCCC1)Cc1ccc(C)cc1
- CC50 [5]: > 100 µM

SMILES: CCOC(=O)/C=C/[C@H](CCC(N)=O)NC(=O)[C@@H](CC(=O)[C@H](CC(C)C)NC(=O)SC1CCCC1)Cc1ccccc1
- CC50 [5]: > 100 µM

SMILES: CCOC(=O)/C=C/[C@H](CCC(N)=O)NC(=O)[C@@H](CC(=O)[C@@H](NC(=O)SC1CCCC1)C(C)(C)C)Cc1ccccc1
- CC50 [5]: > 100 µM

SMILES: CCOC(=O)/C=C/[C@H](CCC(N)=O)NC(=O)[C@@H](CC(=O)[C@H](CC(C)C)NC(=O)OCc1ccccc1)Cc1ccccc1
- CC50 [5]: > 320 µM

SMILES: CCOC(=O)/C=C/[C@H](CCC(N)=O)NC(=O)[C@@H](CC(=O)[C@@H](NC(=O)SC1CCCC1)C(C)C)Cc1ccc(C(F)(F)F)cc1
- CC50 [5]: > 100 µM

SMILES: CCOC(=O)/C=C/[C@H](CCC(N)=O)NC(=O)[C@@H](CC(=O)[C@H](Cc1ccccc1)NC(=O)SC1CCCC1)Cc1ccc(F)cc1
- CC50 [5]: > 100 µM
